{
  "source": "patent US20250290915A1",
  "about": "“METHOD FOR PREDICTING RESPONSIVENESS TO THERAPY” (CANCERTAIN LIMITED, priority 2022, published 2025)",
  "format_in_all_cases": "cell-based, human",
  "key": {"[1]": {"system": "Circulating Tumour Cells (CTCs) from a patient with lung cancer (adenocarcinoma)", "experiment": "Drug response score assay on CTCs (with CD45+ cells for immunotherapy) from blood, Example 5", "settings": "lung cancer CTCs, Table 17", "experimental": "(§1) CD45^+ cells and circulating tumour cells (CTCs) were isolated from a blood sample provided by each subject.\n(§2) CD45 separation was performed by adding human CD45 microbeads (50 μl/ml blood), incubating for 15 minutes at 4° C. and then processing using an AutoMACS machine. This separates the blood sample into CD45^+ and CD45^−cells in 2 separate falcons. The falcon tubes are then centrifuged at 1200 rpm for 5 minutes.\nThe supernatant was removed from the CD45^+falcon tube, and the cells resuspended in DMEM with 2 μl Cell Tox, 2 μl MT and 2 μl MT. 20 μl of the resuspended CD45^+ cells was then plated in each well which will contain an immunotherapy treatment.\n(§3) The supernatant was removed from the CD45^−falcon tube, and the CD45^−cells contacted with 100 μl of FcR block and 100 μl of CD326 (EpCAM) MicroBeads, followed by incubation at […] 4° C. for 30 minutes. The CD45^−cells were then processed using an AutoMACS machine to separate the EpCAM positive and negative cells into 2 separate falcon tubes. The EpCAM-cells were discarded. The supernatant was removed from the EpCAM^+ cells, and the cells resuspended in DMEM with 2 μl Cell Tox, 2 μl MT and 2 μl MT. 20 μl of the resuspended pellet was then added to all sample wells excluding a blank. After all wells are added to, a cell count was conducted on the […] to determine the number of circulating tumour cells (CTCs).\n(§4) The different cell types were each divided equally into populations, depending on the number of drugs/concentrations to be tested and plated on a cell-culture plate pre-coated with a scaffold of polycaprolactone (PCL) electrospun fibres and incubated at 37° C., 5% CO2, for 5 to (typically 10) minutes to facilitate cell attachment. After attachment, an initial imaging step was carried out using the RealTime-Glo™ MT assay from Promega (Catalogue No. G9711)) and the CellTox™ Green Cytotoxicity Assay (Promega, Catalogue No. G8741), carried out according to manufacturer's instructions. Following this initial imagining, the immunotherapeutic and/or chemotherapeutic agents were added to the cell populations as indicated below. After 10 minutes, the imagining step was repeated. The cell populations were then incubated at 37° C., 5% CO2 for 48 hours. The imaging step was then repeated. The cell populations were then re-dosed with the same immunotherapeutic and/or chemotherapeutic agents as indicated below, and incubated at 37° C., 5% CO2 for a further 48 hours. After this second 48 hour incubation, the imagining step was repeated for a final time.\n(§5) At the end of this culture period, dose response scores were calculated using a normalized drug response metric as described in Gupta et al. (Communications Biology volume 3, Article number: 42 (2020), https://doi.org/10.1038/s42003-020-0765-z). The start readout for a given immunotherapeutic or chemotherapeutic agent at a given concentration was the to readout for said immunotherapeutic or chemotherapeutic agent at a specified concentration. The end readout for a given immunotherapeutic or chemotherapeutic agent at a given concentration was the final timepoint reading (t96h) for said immunotherapeutic or chemotherapeutic agent at a specified concentration.\n(§6) The positive control start readout for a given drug/concentration was the to readout for the corresponding drug at a specified concentration. The positive control end readout for the corresponding drug at a specified concentration was the final timepoint reading (t96h) for the corresponding blank well.\n(§7) The negative control start and end readouts for a given immunotherapeutic or chemotherapeutic agent at a given concentration were the to and final timepoint reading (t96h) respectively for blank cell or blank immuno cell well respectively.\nThe sensitivity or resistance of a subject's cancer to a given immunotherapeutic or chemotherapeutic agent was determined based on the calculated drug response score as shown in Table 2. […]"}, "[2]": {"system": "Circulating Tumour Cells (CTCs) from a patient with head and neck cancer (squamous cell carcinoma)", "experiment": "Drug response score assay on CTCs from blood, Example 6", "settings": "for Drug response score, conc. 1: conc. 1: Ifos 0.125 μg/ml, Gemcit 2 μg/ml, Doxo 10 ng/ml, Etop 1 μg/ml, Metho 0.5 μg/ml, Capecit 200 μg/ml, Vinor 20 μg/ml; for Drug response score, conc. 1 / Drug response score, conc. 2 / Drug response score, conc. 3 / Drug response score, conc. 4: CTCs, t96h; for Drug response score, conc. 2: conc. 2: Ifos 0.25 μg/ml, Gemcit 10 μg/ml, Doxo 30 ng/ml, Etop 4 μg/ml, Metho 1 μg/ml, Capecit 300 μg/ml, Vinor 40 μg/ml; for Drug response score, conc. 3: conc. 3: Ifos 5 μg/ml, Gemcit 20 μg/ml, Doxo 90 ng/ml, Etop 20 μg/ml, Metho 2 μg/ml, Capecit 400 μg/ml, Vinor 80 μg/ml; for Drug response score, conc. 4: conc. 4: Ifos 10 μg/ml, Gemcit 40 μg/ml, Doxo 270 ng/ml, Etop 100 μg/ml, Metho 4 μg/ml, Capecit 600 μg/ml, Vinor 200 μg/ml; for effectiveness on Circulating Tumour Cells under laboratory conditions / Drug sensitivity as calculated by the assay (interpretation of Drug Response Scores): head and neck cancer CTCs; for Drug sensitivity as calculated by the assay (interpretation of Drug Response Scores): Table 20", "experimental": "as §1, §2, §3, §4, §5, §6, §7\n(§8) The sensitivity or resistance of a subject's cancer to a given immunotherapeutic or chemotherapeutic agent was determined based on the calculated drug response score as shown in Table 2.\nBlood samples from a patient with head and neck cancer (squamous cell carcinoma) were received on 11 Mar. 2022 and tested using a 7 drug panel."}, "[3]": {"system": "Circulating Tumour Cells (CTCs) from a patient with colon cancer (sigmoid colon cancer)", "experiment": "Drug response score assay on CTCs from blood, Example 8", "parameters": "key to Drug response score, conc. 1 / Drug response score, conc. 2 / Drug response score, conc. 3 / Drug response score, conc. 4: normalized drug response metric (Gupta et al. 2020)", "experimental": "as §1, §2, §3\nas §4, with “After” for “The different cell types were each divided equally into populations, depending on the number of drugs/concentrations to be tested and plated on a cell-culture plate pre-coated with a scaffold of polycaprolactone (PCL) electrospun fibres and incubated at 37° C., 5% CO2, for 5 to (typically 10) minutes to facilitate cell attachment. After”\nas §5, §6, §7, §8\nBlood samples from a patient with colon cancer (sigmoid colon cancer) were received on 8 Mar. 2022 and tested using a 9 drug panel.\nChemotherapeutic agents were tested as in Table 24."}},
  "data": [
    {"smiles": "CN(Cc1cnc2nc(N)nc(N)c2n1)c1ccc(C(=O)N[C@@H](CCC(=O)O)C(=O)O)cc1", "note": "[Methotrexate]", "values": [
      {"measurement": "Drug sensitivity as calculated by the assay (interpretation of Drug Response Scores)", "setting": "[1]", "result": "S++"},
      {"measurement": "Drug response score, conc. 1", "setting": "[2]", "result": 0.9711},
      {"measurement": "Drug response score, conc. 2", "setting": "[2]", "result": 0.9988},
      {"measurement": "Drug response score, conc. 3", "setting": "[2]", "result": 1.0559},
      {"measurement": "Drug response score, conc. 4", "setting": "[2]", "result": 0.7375},
      {"measurement": "effectiveness on Circulating Tumour Cells under laboratory conditions", "setting": "[2]", "result": "not effective"},
      {"measurement": "Drug sensitivity as calculated by the assay (interpretation of Drug Response Scores)", "setting": "[2]", "result": "Resistant"}
    ]},
    {"smiles": "CCC1=C[C@@H]2CN(C1)Cc1c([nH]c3ccccc13)[C@@](C(=O)OC)(c1cc3c(cc1OC)N(C)[C@H]1[C@@](O)(C(=O)OC)[C@H](OC(C)=O)[C@]4(CC)C=CCN5CC[C@]31[C@@H]54)C2", "note": "[Vinorelbine]", "values": [
      {"measurement": "Drug sensitivity as calculated by the assay (interpretation of Drug Response Scores)", "setting": "[1]", "result": "S++"},
      {"measurement": "Drug response score, conc. 1", "setting": "[2]", "result": 0.6102},
      {"measurement": "Drug response score, conc. 2", "setting": "[2]", "result": 0.9691},
      {"measurement": "Drug response score, conc. 3", "setting": "[2]", "result": 0.4733},
      {"measurement": "Drug response score, conc. 4", "setting": "[2]", "result": 0.8073},
      {"measurement": "effectiveness on Circulating Tumour Cells under laboratory conditions", "setting": "[2]", "result": "Sensitive S+"},
      {"measurement": "Drug sensitivity as calculated by the assay (interpretation of Drug Response Scores)", "setting": "[2]", "result": "Sensitive (S+)"},
      {"measurement": "Drug response score, conc. 1", "setting": "[3]; conc. 1 of each drug as in Table 24, CTCs, t96h", "result": 0.0721},
      {"measurement": "Drug response score, conc. 2", "setting": "[3]; conc. 2 of each drug as in Table 24, CTCs, t96h", "result": "−0.6648"},
      {"measurement": "Drug response score, conc. 3", "setting": "[3]; conc. 3 of each drug as in Table 24, CTCs, t96h", "result": 0.2340},
      {"measurement": "Drug response score, conc. 4", "setting": "[3]; conc. 4 of each drug as in Table 24, CTCs, t96h", "result": "−0.5738"},
      {"measurement": "Drug sensitivity as calculated by the assay (interpretation of Drug Response Scores)", "setting": "[3]; sigmoid colon cancer CTCs, Table 26", "result": "Sensitive (S+)"}
    ]}
  ]
}
